Experimental data reported in US7157570B2, “Human ribonucleotide reductase M2 subunit” (priority 2002, dated 2007).

Columns and labels:
KB cells [1] = assay: colony-forming assay; format: cell-based, human; details: drug alone (0.1 mM HU or 0.3 μM Gem)
Method: Human oropharyngeal carcinoma KB cells (American Type Culture Collection) were cultured on plastic tissue culture plates in RPMI 1640 supplemented with 10% fetal bovine serum at 37° C. in a humidified atmosphere containing 5% carbon dioxide. […] In all studies, HU was included in the growth medium where indicated at a concentration of 0.1 mM while Gem was provided at a concentration of 0.3 μM.
The colony-forming ability of KB cells treated with HU and/or Gem at varying times was determined. Equal numbers of logarithmically growing cells were treated with HU and/or Gem at the times specified and then plated in 6-well tissue culture dishes as previously described (Zhou et al. (1998) Biochem Pharmaco 55, 1657–1665). The numbers of colonies, consisting of at least 50 cells, for each sample were counted after incubation at 37° C. for 8 generation times.
The colony-forming ability of KB cells treated with HU and/or Gem was assayed using the ID50 concentrations for KB cells. KB cells were exposed to 0.1 mM HU. 0.3 μM Gem was added after 2 to 24 hours of HU treatment, and then cells were assayed for their colony forming ability.

[2] = phase I trial: dose-limiting toxicities and MTD; format: in vivo, human; details: on days 2 and 9; HU 500 mg every 6 h x4 on days 1 and 8
Method: Pregnant female patients were excluded.
Patients received the chemotherapy as outpatients.
Hematologic dose-limiting toxicity (DLT) was defined as a platelet count <75,000/μl on day 8, or a platelet count <25,000/μl lasting seven or more days, an ANC <1,000/μl on day 8 or an ANC <500/μl lasting seven or more days. Hepatic DLT was defined as bilirubin 4.5–6.0 mg/dl or transaminase 8.0–20.0 times normal (grade 3), and bilirubin >6.0 mg/dl or transaminase more than 20.0 times normal (grade 4). Other toxicities were graded according to the NCl Common Toxicity Criteria Version 1.0. Dose escalations and determination of the maximum tolerated dose (MTD) were based on DLT occurring in the first cycle. MTD was defined as the highest dose tested at which none or only one patient experienced DLT when at least six patients were treated at that dose and were evaluable for toxicity. Patients received additional cycles of therapy until unacceptable toxicity required discontinuation of treatment, the patient requested discontinuation, or disease progression occurred.

clinical = assay: clinical; set-up: species or system human; details: in vivo
Method: Blood sample were collected in heparinized tubes and kept on ice until plasma could be separated by centrifugation (within 30 min). Plasma was transferred to polypropylene tubes containing tetrahydrouridine to inhibit cytidine deaminase and stored at -70° C. until analysis. […] Detection was performed by UV absorbance at 275 nm. […] The inter- and intra-day coefficient of variation across the entire range of the standard curve were <10%, and the accuracies were ±7%. The lower limit of quantification of the assay was 5 ng/ml. […] Data were fitted to a two-compartment model with first-order elimination.

KBGem clone = details: cited from earlier work
[3] = tested on: hRRM2 protein in KB cells; assay: Western blot of hRRM2 protein after exposure to HU; format: cell-based, human; details: 0.1 mM HU, 4-hour point
Method: After transferred, the PVDF membranes were suspended in 1% I-block™ (Applied Biosystems) blocking buffer until detection. Goat anti-human RRM2 polyclonal antibody (Santa Cruz Biotechnology, Inc. (SC-10844:R2(N-18)), and α-tubulin anti-serum (internal control) (Santa Cruz Biotechnology, Inc.) were 1:200 diluted with blocking buffer including 1% I-block™ reagent and 0.1% Tween-20 detergent (Applied Biosystems). PVDF membranes were incubated with above-mentioned buffer for 45 minutes at room temperature. After washed with 0.5% I-block™ blocking buffer six times, the PVDF membranes were re-incubated with 1% I-block™ blocking buffer including 1:2000 diluted second antibody conjugated to alkaline phosphatase (bovine anti-goat antibody, Santa Cruz) for 30–60 minutes. After washed with 0.5% I-block™ blocking buffer and assay buffer (200 mM Tris, 10 mM MgCl2), the PVDF membranes were loaded a thin layer of CSPD® Ready-to-Use substrate solution (Applied Biosystem) and incubated for 5 minutes, then exposed to X-ray film for 3 minutes.
To further confirm this phenomenon, Western blot analysis of hRRM2 expression was performed.

KB cells [4] = assay: cell cycle analysis by flow cytometry; format: cell-based, human; details: 4 to 8 hours of exposure to HU
Method: The cell cycle analysis was performed at flowcytometry core facility of City of Hope National Medical Center. The percent of cells in each phase of the cell cycle was analyzed by ModFit software. The protocol was summarized as below. Cells were trypsinized, washed twice with PBS, and resuspended in 1 ml PBS. 7 ml 0.5 M citric acid buffer (pH 2.35) was added and samples were stored overnight at room temperature in the dark. On the second day, the cells were placed at 4° C. in a dark environment. On the third day, cells were spun down, resuspended in citric acid buffer (pH 4.5) and adjusted to a concentration of 1×10^6 cells/ml. On the following day, the cells were spun down and resuspended in 1 ml BSA-H (0.1% BSA in PBS buffer). 150 μg RNase A (DNase free) was added to the solution and cells were incubated at 37° C. for 30 minutes. The cells were washed once with BSA-H and the pellet was resuspended in 1 ml 100 μg/ml propidium iodine (PI) and stored overnight at room temperature in the dark. On the following day, cells were analyzed by flowcytometry (Gao et al. (1998) Biochem Pharmaco 56, 105–112).
To further examine the time- and sequence-dependent interaction between HU and Gem, the effect of HU on cell cycle was studied. […] As Gem function requires DNA synthesis, the increased percent of cells in S-phase after 4 to 8 hours after exposure to HU is likely to augment its function.

hRRM2 mRNA in KB cells = assay: Northern blot of hRRM2 mRNA after exposure to HU; format: cell-based, human; details: 0.1 mM HU
Method: RNA was electrophoresed in a formaldehyde-agarose gel and blotted onto Hybond-N membrane.
Northern blot analysis was used to measure the level of hRRM2 mRNA after exposure to HU at various time points. KB cells growing in logarithmic phase were exposed to 0.1 mM HU and harvested after 0, 2, 4, 8, 12 16 and 24 hours. Total cellular RNA was extracted and analyzed by Northern blot (20 μg per lane). PCR products, consisting of full-length hRRM2 subunit cDNA sequences, were used as probes. The amount of RNA detected was measured by phosphorimager and results were normalized to the amount of GAPDH mRNA detected on the same blot.

[5] = tested on: intracellular dNTP pools in KB cells; assay: dNTP pool assay; format: cell-based, human
Method: After treatment at designated time points with HU and/or Gem, cells were trypsinized, washed with PBS and viable cells were counted by Trypan Blue dye exclusion. Cells were transferred to 1.5 ml Eppendorf tubes and pelleted by brief centrifugation. Cell pellets were mixed with 100 μl 15% trichloroacetic acid and kept on ice for 10 minutes. It was then centrifuged for 5 minutes and the supernatant collected. dNTPs were extracted with two 50 μl aliquots of freon/trioctylamine (55%:45%). After each centrifugation, the supernatant was saved. 5 μl aliquots of each sample were used to check dATP, dCTP, dGTP, and dTTP concentrations. Each measurement was performed in duplicate (Zhou et al. (1998) Biochem Pharmaco 55, 1657–1665).
The reaction mixture contained 50 mM Tris-HCl (pH 7.5), 10 mM MgCl2, 5 mM DTT, 0.25 μM template/primer, 1.25 μM ^3H-dATP (for dCTP, dGTP, and dTTP assays) or ^3H-dTTP (for dATP assay), and 0.2 units of Sequenase (2.0) in a total volume of 50 μl. DNA synthesis was allowed to proceed for twenty minutes at room temperature and then the reaction was stopped and 40 μl of the reaction mixture was spotted onto Whatman DE81 ion exchange paper (2.4 cm diameter). The paper was dried, washed with 5% Na2HPO4 (3×10 min.), and rinsed once with distilled water and once with 95% ethanol. Samples were counted in a liquid scintillation counter and compared to standard samples prepared in the presence of 0.25, 0.5, and 1.0 pmol/μl of each dNTP.
To evaluate the effect of HU on dNTP pools in KB cells, each dNTP pool was measured as described in the Materials and Methods. dATP and dCTP were the most susceptible of the four dNTP pools to inhibition by HU. A decrease in these intracellular pools commenced after 1 hour of exposure to HU. The decline continued, with the dCTP pool reaching a nadir of approximately 15% of the control at 4 hours. The dATP pool reached a nadir after 8 hours. In a second phase, between 8 and 24 hours after exposure to HU, the dATP and dCTP pools slowly recovered to about 80% of their starting level. […] The decline and recovery of the dCTP and dATP pools paralleled the results of the colony-forming study. The initial drop in hRRM2 mRNA and protein, observed after 2–4 hours of HU exposure, could contribute to the rapid decline in dCTP and dATP pools seen after 4 hrs, while the subsequent overexpression of hRRM2 mRNA and protein would provide the needed activity to allow gradual recovery of the levels of dCTP and dATP.

DNA of KB cells = details: any HU treatment schedule (control)
RR activity in KB cells = molecular target: T1, RR activity in KB cells (Homo sapiens, UniProt P31350); assay: in vivo RR activity assay (permeabilized cells); format: cell-based; details: 0.1 mM HU
T1 construct: endogenous in cells; host or cells: KB cells (human oropharyngeal carcinoma), permeabilized with lysolecithin
T1 sequence (P31350 1-389): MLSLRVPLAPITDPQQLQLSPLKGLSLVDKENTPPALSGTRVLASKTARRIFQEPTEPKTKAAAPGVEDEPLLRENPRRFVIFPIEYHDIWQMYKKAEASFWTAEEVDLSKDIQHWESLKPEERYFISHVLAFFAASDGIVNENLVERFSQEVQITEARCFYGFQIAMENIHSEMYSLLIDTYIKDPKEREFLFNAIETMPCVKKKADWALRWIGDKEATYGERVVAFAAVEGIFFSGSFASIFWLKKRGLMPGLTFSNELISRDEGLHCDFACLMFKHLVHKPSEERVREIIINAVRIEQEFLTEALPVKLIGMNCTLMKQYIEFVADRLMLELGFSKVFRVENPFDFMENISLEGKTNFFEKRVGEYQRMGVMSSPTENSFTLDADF
Method: […] cells were plated in duplicate in 60-mm dishes. Cells were treated with 0.1 mM HU and harvested at the indicated time points. To permeabilize the cells, they were washed twice in Solution A (150 mM sucrose, 80 mM KCL, 35 mM HEPES, pH 7.4, 5 mM potassium phosphate, pH 7.4, 5 mM MgCl2, 0.5 mM CaCl2), resuspended in 500 μl of cold Solution A containing 0.25 mg/ml lysolecithin, and incubated for 1 minute at 4° C. To measure the activity of ribonucleoside diphosphate reduction and DNA synthesis, 1×10^6 permeabilized cells were incubated at 37° C. for 10 minutes in 300 μl of 50 mM HEPES, pH 7.4, 10 mM MgCl2, 8 mM dithiothreitol, 0.06 mM FeCl3, 7.5 mM potassium phosphate, pH 7.4, 0.75 mM CaCl2, 10 mM phosphoenolpyruvate, 0.2 mM ^3H-rCDP, 0.2 mM rGDP, 0.2 mM rADP, 0.2 mM dTDP. Following incubation, 150 μl of the suspension mixture was taken out, resulting in two samples, and mixed with 30 μl of 60% perchloric acid/0.1% sodium pyrophosphate. After a 15-minute incubation on ice, 1 ml ddH2O was added to dilute the mixture and then it was centrifuged to precipitate any acid-insoluble material. Pellets were extracted with 0.1 ml 0.2 N NaOH and incubated at 37° C. for 30 minutes.
An in vivo RR activity assay was performed at the same time points as above described. […] The results are consistent with the observed levels of hRRM2 mRNA and protein expression.

KBHURs clone = details: cited from earlier work

Nc1ccn([C@@H]2O[C@H](CO)[C@@H](O)C2(F)F)c(=O)n1 [Gemcitabine, gemcitabine]
colony formation, % of untreated controls (KB cells [1]): approximately 50% | MTD for gemcitabine in this combination of drugs [2]: 750 mg/m^2 | t1/2 alpha (clinical; human): 2.4 ± 1.4 min | variation of CLsys within a single dose level (clinical; human): about 6 fold | half-life (clinical; human, t1/2 alpha): 2.6 ± 1.9 min | half-life (clinical; human, t 1/2 alpha, Mean): 2.7 min | half-life (clinical; human, t1/2 beta): 15.2 ± 5.3 min | differences in pharmacokinetic parameters between day 2 and day 9 (clinical): no significant differences | effect of administered dose on CLsys (clinical): no apparent effect | increase in resistance (to Gem) (KBGem clone): 10 fold

NC(=O)NO [HU, hydroxyurea]
colony formation, % of untreated controls (KB cells [1]): approximately 50% | hRRM2 protein expression [3]: decrease | percentage of cells in G1 (KB cells [4]): remained stable | percentage of cells in G2/M (KB cells [4]): declined | percentage of cells in S-phase (KB cells [4]): approximately doubled | decrease of hRRM2 mRNA relative to untreated sample (hRRM2 mRNA in KB cells; 2 hours): 20% | hRRM2 mRNA, % of control levels (hRRM2 mRNA in KB cells; 4 hours): 60% | dTTP and dGTP pools over time ([5]; HU exposure): did not vary significantly | time at which dATP pool reached a nadir ([5]; HU exposure): 8 h | dCTP pool nadir, % of the control ([5]; HU, 4 hours): approximately 15% | dATP and dCTP pools, % of starting level after recovery ([5]; between 8 and 24 hours after exposure to HU): about 80% | incorporation of 3H-labeled CDP into DNA (DNA of KB cells): did not vary significantly | RR activity (RR activity in KB cells; 8-hour point): recovered to the level of the control | RR activity, % of the control (RR activity in KB cells; 4 hours): 60% | increase in resistance to HU over KBwt cells (KBHURs clone): 15 fold
